We go through four molecules from patent US20020035061A1, “COMPOSITIONS AND METHODS FOR TREATING INFECTIONS USING CATIONIC PEPTIDES ALONE OR IN COMBINATION WITH ANTIBIOTICS” (priority 1996, published 2002).

Data set [1] has as its system mammalian red blood cells. As to conditions: 37° C., 1 hour.
Description: Candidate cationic peptides may be further tested for their toxicity to normal mammalian cells. An exemplary assay is a red blood cell (RBC) (erythrocyte) hemolysis assay. Briefly, in this assay, red blood cells are isolated from whole blood, typically by centrifugation, and washed free of plasma components. A 5% (v/v) suspension of erythrocytes in isotonic saline is incubated with different concentrations of peptide analogue. […] After incubation for approximately 1 hour at 37° C., the cells are centrifuged, and the absorbance of the supernatant at 540 nm is determined. A relative measure of lysis is determined by comparison to absorbance after complete lysis of erythrocytes using NH4Cl or equivalent (establishing a 100% value). A peptide with <10% lysis at 100 μg/ml is suitable. Preferably, there is <5% lysis at 100 μg/ml. Such peptides that are not lytic, or are only moderately lytic, are desirable and suitable for further screening.
Cationic peptides are tested for toxicity towards eukaryotic cells by measuring the extent of lysis of mammalian red blood cells (RBC). Briefly, in this assay, red blood cells are separated from whole blood by centrifugation and washed free of plasma components. A 5% (v/v) washed red blood cell suspension is prepared in isotonic saline. An aliquot of peptide in formulation is then added and mixed in. After incubation at 37° C. for 1 hour with constant agitation, the solution is centrifuged and the supernatant measured for absorbance at 540 nm to detect released hemoglobin.
A combination of cationic peptide and antibiotic agent is tested for toxicity towards eukaryotic cells by measuring the extent of lysis of mammalian red blood cells. Briefly, red blood cells are separated from whole blood by centrifugation, washed free of plasma components, and resuspended to a 5% (v/v) suspension in isotonic saline. […] Following incubation with constant agitation at 37° C. for 1 hour, the solution is centrifuged, and the absorbance of the supernatant is measured at 540 nm, which detects released hemoglobin. […]
A further data set deals with A. calcoaceticus. In kind it is cell-based.
The test system of another data set is E. cloacae. Format: cell-based.
A further data set relates to E. coli. In kind it is cell-based. As to conditions: for Peptide MIC values: agarose dilution.
The next data set deals with E. faecalis. In kind it is cell-based. As to conditions: E. faecalis strain EFS002.
For the next data set, the system named is E. faecium. Format: cell-based. To be noted: for Peptide MIC values: agarose dilution.
For the next data set, the system named is H. influenzae. Kind of data set: Agarose dilution assay (MIC). Format: cell-based. As to conditions: H. influenzae strain HIN002.
The subject of the next data set is K. pneumoniae. In kind it is cell-based.
The subject of the next data set is P. aeruginosa. In kind it is cell-based. As to conditions: for Peptide MIC values: agarose dilution.
The next data set has as its system P. vulgaris. Description: Agarose dilution assay (MIC). Format: cell-based.
Another data set deals with S. aureus. Format: cell-based. To be noted: for Peptide MIC values: agarose dilution.
In a further data set the test system is S. epidermidis. Format: cell-based.
Another data set concerns S. maltophilia. In kind it is cell-based.
Another data set deals with S. marcescens. In kind it is cell-based. To be noted: for Peptide MIC values: agarose dilution.
Another data set relates to S. pneumoniae. Description: Agarose dilution assay (MIC). In kind it is cell-based. To be noted: for Peptide MIC values: agarose dilution.
The subject of a further data set is bacterial isolates. Description: microbe, parasite or virus in culture. In kind it is cell-based. As to conditions: E. coli SBECO1.
In data set [2] the test system is DoHH-2, B-cell cell lymphoma. Kind of data set: Cell death by Cytotox (Promega) lactate dehydrogenase release. To be noted: LDH release. In kind it is cell-based. The procedure:
(§1) In addition, APO-peptides and parent peptides are tested against a panel of cancer cell lines. Cell death is measured using the Cytotox (Promega) assay kit which measures the release of lactate dehydrogenase.
(§2) PBL, peripheral blood lymphocytes; HUVEC, human umbilical vein endothelial cells; H460,non-small lung tumor; K562, chronic myelogenous leukemia; DoHH-2, B-cell cell lymphoma; P388, lymphocytic leukemia; P388ADR, lymphocytic leukemia, multidrug resistant; MCF-7, breast carcinoma; MCF-7ADR, breast carcinoma, multidrug resistant.
A general note: LDH leaks from cells whose membrane has failed.

In data set [3] the test system is H460, non-small lung tumor. Described as above. In kind it is cell-based. As to conditions: LDH release. How it is done:
as §1, §2

Data set [4] deals with HUVEC, human umbilical vein endothelial cells. The description is as above. To be noted: LDH release. Format: cell-based. The procedure: as §1, §2
Data set [5] has as its system K562, chronic myelogenous leukemia. The data set is described as above. In kind it is cell-based. To be noted: LDH release. How it is done: as §1, §2
The test system of data set [6] is P388, lymphocytic leukemia. The data set is described as above. Format: cell-based. As to conditions: LDH release. How it is done: as §1, §2
Data set [7] deals with P388ADR, lymphocytic leukemia, multidrug resistant. The description is as above. In kind it is cell-based. As to conditions: LDH release. How it is done: as §1, §2
Data set [8] deals with PBL, peripheral blood lymphocytes. The description is as above. Format: cell-based. To be noted: LDH release. The procedure: as §1, §2
Data set [9] relates to E. coli strain ML-35 inner membrane. Format: cell-based. As to conditions: cells pre-incubated with valinomycin.
The test system of data set [10] is MSSA (Smith, ATCC # 19640). Kind of data set: In vivo efficacy, MSSA infection. Set-up: species or system S. aureus. To be noted: mice, ip, formulation D, below 14.5 mg/kg.

Like-named read-outs stand apart in the source and are kept apart here. Bounds are passed on as bounds.

As to `CC[C@H](C)[C@H](NC(=O)CNC(=O)[C@@H](NC(=O)[C@H](CCCCN)NC(=O)[C@H](CCCCN)NC(=O)[C@H](Cc1ccccc1)NC(=O)[C@H](CC(C)C)NC(=O)[C@H](CCCCN)NC(=O)[C@H](Cc1c[nH]c2ccccc12)NC(=O)[C@@H](N)CCCCN)[C@@H](C)CC)C(=O)NCC(=O)N[C@@H](C)C(=O)N[C@H](C(=O)N[C@@H](CC(C)C)C(=O)N[C@@H](CCCCN)C(=O)N[C@H](C(=O)N[C@@H](CC(C)C)C(=O)N[C@H](C(=O)N[C@H](C(=O)NCC(=O)N[C@@H](CC(C)C)C(=O)N1CCC[C@H]1C(=O)N[C@@H](C)C(=O)N[C@@H](CC(C)C)C(=O)N[C@@H](CCCCN)C(=O)N[C@@H](CC(C)C)C(=O)N[C@H](C(=O)N[C@@H](CCCCN)C(=O)O)[C@@H](C)O)[C@@H](C)O)[C@@H](C)O)C(C)C)C(C)C` [MBI 28], the “% Lysis” value in data set [1] is on record as 4.7%.

Turning to `CC[C@H](C)[C@H](NC(=O)CNC(=O)[C@@H](NC(=O)[C@H](CCCCN)NC(=O)[C@H](CCCCN)NC(=O)[C@H](Cc1ccccc1)NC(=O)[C@H](CC(C)C)NC(=O)[C@H](CCCCN)NC(=O)[C@H](Cc1c[nH]c2ccccc12)NC(=O)[C@@H](N)CCCCN)[C@@H](C)CC)C(=O)NCC(=O)N[C@@H](C)C(=O)N[C@H](C(=O)N[C@@H](CC(C)C)C(=O)N[C@@H](CCCCN)C(=O)N[C@H](C(=O)N[C@@H](CC(C)C)C(=O)N[C@H](C(=O)N[C@H](C(=O)NCC(=O)N[C@@H](CC(C)C)C(=O)N1CCC[C@H]1C(=O)N[C@@H](C)C(=O)N[C@@H](CC(C)C)C(=O)N[C@H](C(=O)N[C@@H](CO)C(=O)O)[C@@H](C)CC)[C@@H](C)O)[C@@H](C)O)C(C)C)C(C)C` [MBI 27], the “% Lysis” value in data set [1] is listed as 2.7%.

For the molecule ILKKYPYYPYRRK [MBI 11A3CN], the MIC with A. calcoaceticus (A. calcoaceticus strain AC001) is >128 µg/mL; against E. cloacae (E. cloacae strain ECL007) it was >128 µg/mL; in the data set with E. coli (E. coli strain ECO002), >128 µg/mL; against E. faecalis, >128 µg/mL; against E. faecium (E. faecium strain EFM003), 64 µg/mL; with H. influenzae, >128 µg/mL. In addition, the MIC was >128 µg/mL in the data set on K. pneumoniae (K. pneumoniae strain KP001); >128 µg/mL with P. aeruginosa (P. aeruginosa strain PA002); >128 µg/mL against P. vulgaris (P. vulgaris strain SBPV1); 32 µg/mL in the data set on S. aureus (S. aureus strain SA004); 128 µg/mL with S. epidermidis (S. epidermidis strain SE002); >128 µg/mL in the data set with S. maltophilia (S. maltophilia strain SMA001). The MIC against S. marcescens (S. marcescens strain SBSM2) and in the data set on S. pneumoniae (S. pneumoniae strain SBSPN3) was >128 µg/mL throughout. In addition, the “Peptide MIC values” is >128 µg/mL with E. coli (E. coli ATCC 25922); >128 µg/mL in the data set on E. coli (E. coli ESS); 64 µg/mL in the data set with E. coli (E. coli NCTC 10418); >128 µg/mL in the data set with E. faecium; >128 µg/mL in the data set on P. aeruginosa (P. aeruginosa ATCC 27853); >128 µg/mL in the data set with P. aeruginosa (P. aeruginosa NCTC 10662). Besides, the “Peptide MIC values” is >128 µg/mL in the data set on P. vulgaris (agarose dilution, P. vulgaris ATCC 13315); 16 µg/mL in the data set on S. aureus (S. aureus ATCC 29213); 128 µg/mL in the data set with S. aureus (S. aureus MRSA9); >128 µg/mL in the data set with S. aureus (S. aureus MRSA13); >128 µg/mL in the data set with S. aureus (S. aureus MRSA17); >128 µg/mL in the data set with S. aureus (S. aureus SA206). Besides, the “Peptide MIC values” in the data set with S. marcescens (S. marcescens SM76), in the data set on S. marcescens (S. marcescens SM82), with S. pneumoniae (S. pneumoniae 406LE8), in the data set on S. pneumoniae (S. pneumoniae 60120) and in the data set on S. pneumoniae (S. pneumoniae ATCC 49619) was >128 µg/mL in each case. Besides, the “Mupirocin MIC + Peptide” value with bacterial isolates worked out at 30 µg/mL. Moreover, the “Peptide MIC + Mupirocin” value in the data set on bacterial isolates is 8 µg/mL. Further, the “Peptide MIC Alone” value in the data set with bacterial isolates (Mupirocin section) worked out at 64 µg/mL. In addition, the FIC with bacterial isolates (peptide + Mupirocin) was determined as 0.43. In addition, the “LC50 ± S.E., DoHH-2” value in data set [2] is >500 µg/mL. Also, in [3], the “LC50 ± S.E., H460” value is >500 µg/mL. For the same molecule, in data set [4], the “LC50 ± S.E., HUVEC” value is >500 µg/mL. Also, in data set [5], the “LC50 ± S.E., K562” value is >500 µg/mL. Further, in [6], the “LC50 ± S.E., P388” value was >300 µg/mL. Further, the “LC50 ± S.E., P388 ADR” value in data set [7] was >300 µg/mL. Besides, the “LC50 ± S.E., PBL” value in data set [8] is >500 µg/mL.

Turning to ILPWKWPWWPWRR [MBI 10CN], the MIC in the data set with A. calcoaceticus (A. calcoaceticus AC001) was 64 µg/mL; in the data set on E. cloacae (E. cloacae ECL007), >128 µg/mL; with E. coli (E. coli ECO001) it was 32 µg/mL; against E. coli (E. coli SBECO2) it was 16 µg/mL; in the data set on E. faecium (E. faecium EFM003), 2 µg/mL; with K. pneumoniae (K. pneumoniae KP002) it was 64 µg/mL. For the same molecule, the MIC is >128 µg/mL against P. aeruginosa (P. aeruginosa PA002); 2 µg/mL against S. aureus (S. aureus SA003); 4 µg/mL in the data set with S. epidermidis (S. epidermidis SE010); 64 µg/mL with S. maltophilia (S. maltophilia SMA002); >128 µg/mL against S. marcescens (S. marcescens SMS004). Moreover, the “Peptide MIC values” in the data set with E. coli (E. coli ATCC 25922) was 16 µg/mL; with E. coli (E. coli NCTC 10418) it was 8 µg/mL; with E. faecium it was 4 µg/mL; in the data set on P. aeruginosa (P. aeruginosa ATCC 27853), >128 µg/mL; in the data set on P. aeruginosa (P. aeruginosa NCTC 10662) it was >128 µg/mL; with S. aureus (S. aureus MRSA9), 1 µg/mL. Further, the “Peptide MIC values” with S. aureus (S. aureus MRSA13) was 4 µg/mL; in the data set on S. aureus (S. aureus MRSA17), 2 µg/mL; in the data set with S. marcescens (S. marcescens SM82) it was >128 µg/mL; with S. pneumoniae (S. pneumoniae 406LE8) it was >128 µg/mL; in the data set on S. pneumoniae (S. pneumoniae 60120), 64 µg/mL; in the data set with S. pneumoniae (S. pneumoniae ATCC 49619), 32 µg/mL. Further, the “ONPG hydrolysis diminished compared to no pre-incubation” value in [9] is “approximately 50%”. Besides, the survival entry in data set [10] is “clear dose-dependent survival”.
